Assay results as given in PubChem BioAssay (NCI).
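Tested at 5 concentrations; 48 h exposure; 96-well plates; endpoints linearly interpolated, else capped at highest concentration. GI50 is the concentration that inhibits growth by half. TGI: total growth inhibition.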

Key:
Test in all cases: NCI anticancer screen, dose series, 48 h
IGROV1 ovarian = system: IGROV1 ovarian
NCI-H226 lung = system: NCI-H226 lung
SR leukemia = system: SR leukemia
HL-60(TB) leukemia = system: HL-60(TB) leukemia
SW-620 colon = system: SW-620 colon
MDA-MB-435 = system: MDA-MB-435
SF-268 CNS = system: SF-268 CNS
A498 renal = system: A498 renal
SK-MEL-2 melanoma = system: SK-MEL-2 melanoma
M14 melanoma = system: M14 melanoma
CCRF-CEM leukemia = system: CCRF-CEM leukemia
HT29 colon = system: HT29 colon
NCI/ADR-RES ovarian = system: NCI/ADR-RES ovarian
SF-295 CNS = system: SF-295 CNS
U251 CNS = system: U251 CNS
UO-31 renal = system: UO-31 renal
TK-10 renal = system: TK-10 renal
HOP-62 NSCLC = system: HOP-62 NSCLC
UACC-257 melanoma = system: UACC-257 melanoma
MDA-MB-231 breast = system: MDA-MB-231 breast
NCI-H23 lung = system: NCI-H23 lung
KM12 colon = system: KM12 colon
SK-MEL-28 melanoma = system: SK-MEL-28 melanoma
NCI-H460 lung = system: NCI-H460 lung
A549 NSCLC = system: A549 NSCLC
HCT-15 colon = system: HCT-15 colon
SK-OV-3 ovarian = system: SK-OV-3 ovarian
OVCAR-3 ovarian = system: OVCAR-3 ovarian
NCI-H522 lung = system: NCI-H522 lung
K-562 leukemia = system: K-562 leukemia

COc1ccc(CCN2C(=O)/C(=C/c3csc(C#N)n3)SC2=S)cc1OC
GI50 (IGROV1 ovarian): 18.2 µM
TGI (IGROV1 ovarian): 41.7 µM
GI50 (NCI-H226 lung): 15.8 µM
TGI (NCI-H226 lung): 41.5 µM
GI50 (SR leukemia): 2.46 µM
TGI (SR leukemia): 8.72 µM
GI50 (HL-60(TB) leukemia): 14.6 µM
TGI (HL-60(TB) leukemia): 40.1 µM
GI50 (SW-620 colon): 3.15 µM
TGI (SW-620 colon): 11.7 µM
GI50 (MDA-MB-435): 13.6 µM
TGI (MDA-MB-435): 29.3 µM
GI50 (SF-268 CNS): 12.2 µM
TGI (SF-268 CNS): 27 µM
GI50 (A498 renal): 18.6 µM
TGI (A498 renal): 68 µM
GI50 (SK-MEL-2 melanoma): 13.3 µM
TGI (SK-MEL-2 melanoma): 28.6 µM
GI50 (M14 melanoma): 13.8 µM
TGI (M14 melanoma): 49.1 µM
GI50 (CCRF-CEM leukemia): 3.38 µM
TGI (CCRF-CEM leukemia): 11.4 µM
GI50 (HT29 colon): 13.5 µM
TGI (HT29 colon): 27.6 µM
GI50 (NCI/ADR-RES ovarian): 16.3 µM
TGI (NCI/ADR-RES ovarian): 35.7 µM
GI50 (SF-295 CNS): 83.8 µM
TGI (SF-295 CNS): > 100 µM
GI50 (U251 CNS): 14.8 µM
TGI (U251 CNS): 29.9 µM
GI50 (UO-31 renal): 5.08 µM
TGI (UO-31 renal): 23.9 µM
GI50 (TK-10 renal): 3.13 µM
TGI (TK-10 renal): 10.3 µM
GI50 (HOP-62 NSCLC): 22 µM
TGI (HOP-62 NSCLC): 69.6 µM
GI50 (UACC-257 melanoma): 11 µM
TGI (UACC-257 melanoma): 34 µM
GI50 (MDA-MB-231 breast): 12 µM
TGI (MDA-MB-231 breast): 28.8 µM
GI50 (NCI-H23 lung): 14.6 µM
TGI (NCI-H23 lung): 28 µM
GI50 (KM12 colon): 3.71 µM
TGI (KM12 colon): 15.2 µM
GI50 (SK-MEL-28 melanoma): 12.1 µM
TGI (SK-MEL-28 melanoma): 25.3 µM
GI50 (NCI-H460 lung): 17.4 µM
TGI (NCI-H460 lung): 38.7 µM
GI50 (A549 NSCLC): 35 µM
TGI (A549 NSCLC): > 100 µM
GI50 (HCT-15 colon): 5.3 µM
TGI (HCT-15 colon): 20.9 µM
GI50 (SK-OV-3 ovarian): 66.8 µM
TGI (SK-OV-3 ovarian): > 100 µM
GI50 (OVCAR-3 ovarian): 4.99 µM
TGI (OVCAR-3 ovarian): 18 µM
GI50 (NCI-H522 lung): 2.68 µM
TGI (NCI-H522 lung): 13.5 µM
GI50 (K-562 leukemia): 2.97 µM
